Laboratory results published in ChEMBL document CHEMBL4184247, “Development of a series of novel o-phenylenediamine-based indoleamine 2,3-dioxygenase 1 (IDO1) inhibitors” (Bioorg Med Chem Lett, 2018).

Target: Indoleamine 2,3-dioxygenase 1 (Homo sapiens, UniProt P14902)
Assay: Inhibition of IDO1 in IFN-gamma stimulated human HeLa cells assessed as inhibition of kynurenine production pre-incubated for 1 hr followed by IFN-gamma addition and measured after 18 hrs
Assay type: cell-based

Indoleamine 2,3-dioxygenase 1, sequence (P14902 whole entry): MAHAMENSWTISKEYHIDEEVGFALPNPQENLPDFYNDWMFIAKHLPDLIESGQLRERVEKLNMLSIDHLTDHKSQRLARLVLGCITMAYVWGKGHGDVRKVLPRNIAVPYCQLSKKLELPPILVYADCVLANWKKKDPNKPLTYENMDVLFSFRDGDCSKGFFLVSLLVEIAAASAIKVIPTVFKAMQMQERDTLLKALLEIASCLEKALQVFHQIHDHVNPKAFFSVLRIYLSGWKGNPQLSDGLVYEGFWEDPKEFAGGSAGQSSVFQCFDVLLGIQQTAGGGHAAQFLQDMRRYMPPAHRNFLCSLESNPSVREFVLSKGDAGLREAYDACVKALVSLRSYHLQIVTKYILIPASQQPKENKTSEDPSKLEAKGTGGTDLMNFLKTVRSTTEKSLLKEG

Compound | IC50 [nM]
Cc1ccc(NC(=O)Nc2cc(-c3cccc(C(=O)O)c3)ccc2Oc2ccccc2C(C)(C)C)cc1 | > 1000
CCCCN(CCCC)c1ccc(-c2ccccc2C(=O)O)cc1NC(=O)Nc1ccc(C)cc1 | 45
Cc1ccc(NC(=O)Nc2cc(-c3ccc(C(=O)O)cc3)ccc2Oc2ccccc2C(C)(C)C)cc1 | > 1000
Cc1ccc(N2CCN(c3cc(-c4ccccc4-c4nnn[nH]4)ccc3N(CC(C)C)CC(C)C)C2=O)cc1 | 28
CCN(c1ccc(-c2ccccc2C(=O)O)cc1NC(=O)Nc1ccc(C)cc1)C1CCCC1 | 23
Cc1ccc(NC(=O)N(C)c2cc(-c3ccccc3-c3nnn[nH]3)ccc2N(CC(C)C)CC(C)C)cc1 | 97
Cc1ccc(NC(=O)Nc2cc(-c3ccccc3C(=O)O)ccc2N(C)C2CCCCC2)cc1 | 14
Cc1ccc(NC(=O)Nc2cc(-c3ccccc3C(=O)O)ccc2N(C)c2ccccc2C(C)(C)C)cc1 | > 1000
Cc1ccc(N(C)C(=O)Nc2cc(-c3ccccc3-c3nnn[nH]3)ccc2N(CC(C)C)CC(C)C)cc1 | 405

Second part, the compound after the results:

IC50 [nM] | Compound
> 1000 | Cc1ccc(NC(=O)Nc2cc(-c3ccccc3NS(C)(=O)=O)ccc2N(CC(C)C)CC(C)C)cc1
> 1000 | COCCN(CCOC)c1ccc(-c2ccccc2C(=O)O)cc1NC(=O)Nc1ccc(C)cc1
4 | Cc1ccc(NC(=O)Nc2cc(-c3ccccc3-c3nnn[nH]3)ccc2N(CC(C)C)CC(C)C)cc1
> 1000 | Cc1ccc(NC(=O)Nc2cc(-c3ccccc3C(=O)NS(=O)(=O)C(F)(F)F)ccc2N(CC(C)C)CC(C)C)cc1
42 | Cc1ccc(NC(=O)Nc2cc(-c3ccccc3C(=O)O)ccc2N(CC(C)C)C(C)C)cc1
76 | Cc1ccc(NC(=O)Nc2cc(-c3ccccc3NS(=O)(=O)C(F)(F)F)ccc2N(CC(C)C)CC(C)C)cc1
13 | Cc1ccc(NC(=O)Nc2cc(-c3ccccc3C(=O)O)ccc2N(CC(C)C)CC(C)C)cc1
